Laboratory results from US20230295163A1, “TETRACYCLIC DERIVATIVE, METHOD FOR PREPARING SAME AND USE THEREOF IN MEDICINE” (ZHEJIANG HISUN PHARMACEUTICAL CO., LTD., priority 2020, published 2023).

What was measured:
[1] = system: p-ERK1/2 in NCI-H358 cells; assay: Inhibition of p-ERK1/2 in NCI-H358 cells (HTRF kit); assay type: cell-based; settings: Homo sapiens, hEGF 5 nM stimulation, read-out: IC50 inhibiting p-ERK1/2 in NCI-H358 cells
Description: The following method was used to determine the inhibitory activity of the compounds of the present disclosure on p-ERK1/2 in NCI-H358 cells. In this method, Advanced phospho-ERK1/2 (Thr202/tyr204) kit (Cat. No. 64AERPEH) from Cisbio company was used, and the detailed experimental operation can be referred to the kit instruction. NCI-H358 cells (containing KRAS G12C mutation) were purchased from the Cell Resource Center, Shanghai Institutes for Biology Sciences, Chinese Academy of Sciences.
The experimental procedure is briefly described as follows: NCI-H358 cells were cultured in RPMIH 1640 complete medium containing 10% fetal bovine serum, 100 U penicillin, 100 μg/mL streptomycin and 1 mM sodium pyruvate. […] The 96-well plate was placed on ice for half an hour of lysis, and then the lysate was detected according to the instruction of the Advanced phospho-ERK1/2 (Thr202/tyr204) kit. Finally, the fluorescence intensity of each well at emission wavelengths of 620 nm and 665 nM was measured on a microplate reader in TF-FRET mode at an excitation wavelength of 304 nm, and the ratio of the fluorescence intensity of each well at 665/620 was calculated. The percentage of inhibition rate of the test compounds at each concentration was calculated by comparing with the fluorescence intensity of the control group (0.1% DMSO). […]

[2] = ICR mouse pharmacokinetic research; assay type: in vivo; settings: plasma, po, ICR mice, intragastric administration 5 mg/kg
Protocol: ICR mice were used as test animals. The drug concentrations in plasma at different time points of the compounds in Comparative Example 1 and Example 17 of the present disclosure intragastrically administered to the mice were determined by LC/MS/MS method, to study the pharmacokinetic characteristics of the compounds of the present disclosure in mice.
Preparation for intragastric administration: An appropriate amount of the compound to be tested was weighed, added with an appropriate amount of DMSO: PEG 200=5%: 95% (v/v), shaken by vortex, and prepared into a solution with a final concentration of 0.5 mg/mL.
Intragastric administration group: After fasting overnight, the mice were intragastrically administered at a dose of 5 mg/kg and a volume of 10 mL/kg, and fed 4 h after the administration.
Intragastric administration group: About 100 μL of blood was collected through the orbital vein before administration and at 0.25 h, 0.5 h, 1 h, 2 h, 4 h, 8 h, 12 h and 24 h after administration.
The whole blood sample was put in an EDTA-K2 anticoagulant tube. The plasma was separated by centrifugation at 1500 g for 10 min. The collected upper layer plasma was stored at −40 to −20° C. before analysis.
The content of the compound to be tested in mouse plasma was determined by LC-MS/MS after the compound was intragastrically administered.

[3] = target: T1, hERG potassium ion channel (Homo sapiens, UniProt Q12809); assay: Inhibition of hERG potassium ion channel (QPatch, CHO hERG cells); assay type: cell-based
T1 construct: host or cells: CHO
T1 sequence (Q12809 whole entry): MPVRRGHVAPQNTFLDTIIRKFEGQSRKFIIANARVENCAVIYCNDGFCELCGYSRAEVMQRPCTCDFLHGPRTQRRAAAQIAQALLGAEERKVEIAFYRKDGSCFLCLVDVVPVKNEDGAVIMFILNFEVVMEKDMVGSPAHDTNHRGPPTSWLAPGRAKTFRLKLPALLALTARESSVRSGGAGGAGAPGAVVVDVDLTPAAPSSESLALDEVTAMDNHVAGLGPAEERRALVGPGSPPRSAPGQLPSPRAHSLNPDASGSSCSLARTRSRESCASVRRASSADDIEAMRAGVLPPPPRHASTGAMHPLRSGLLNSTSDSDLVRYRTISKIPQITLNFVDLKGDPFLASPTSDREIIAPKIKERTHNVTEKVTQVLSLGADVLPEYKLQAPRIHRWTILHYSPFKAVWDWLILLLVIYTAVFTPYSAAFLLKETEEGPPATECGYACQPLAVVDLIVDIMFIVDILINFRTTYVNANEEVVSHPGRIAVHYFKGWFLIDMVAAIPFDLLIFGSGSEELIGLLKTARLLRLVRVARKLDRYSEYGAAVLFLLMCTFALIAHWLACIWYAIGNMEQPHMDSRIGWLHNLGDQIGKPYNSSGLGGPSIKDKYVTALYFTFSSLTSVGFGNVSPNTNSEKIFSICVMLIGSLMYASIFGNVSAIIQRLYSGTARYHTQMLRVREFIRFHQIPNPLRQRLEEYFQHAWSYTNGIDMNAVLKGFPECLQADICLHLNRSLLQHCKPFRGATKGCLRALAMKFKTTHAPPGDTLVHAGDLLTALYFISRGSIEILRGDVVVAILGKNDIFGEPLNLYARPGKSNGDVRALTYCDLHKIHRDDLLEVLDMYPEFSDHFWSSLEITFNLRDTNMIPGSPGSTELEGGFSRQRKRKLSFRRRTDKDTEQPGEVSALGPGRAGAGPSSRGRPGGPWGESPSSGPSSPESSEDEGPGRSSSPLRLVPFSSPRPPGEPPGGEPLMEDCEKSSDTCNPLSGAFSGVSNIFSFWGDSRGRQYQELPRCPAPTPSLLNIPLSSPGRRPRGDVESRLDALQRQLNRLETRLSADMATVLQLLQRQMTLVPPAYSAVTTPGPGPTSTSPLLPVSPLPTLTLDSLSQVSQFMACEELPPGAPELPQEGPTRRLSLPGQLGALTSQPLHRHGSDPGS
Protocol: 1.1 The cells used in this experiment were CHO cell line (provided by Sophion Bioscience, Denmark) transfected with hERG cDNA and stably expressing hERG channels, with a cell generation of 17. The cells were cultured in a medium containing the following components (all obtained from Invitrogen): Ham's F12 medium, 10% (v/v) inactivated fetal bovine serum, 100 μg/mL hygromycin B, and 100 μg/mL geneticin.
1.2 CHO hERG cells were cultured in a petri dish containing the above culture medium in an incubator containing 5% CO2 at 37° C. 24 to 48 h before the electrophysiological experiment, CHO hERG cells were transferred to a round glass slide placed in a petri dish, and cultured in the same medium and conditions as above. The density of CHO hERG cells on each round glass slide met the requirement that the majority of cells were independent and individual.
A fully automated QPatch system (Sophion, Denmark) was used for whole-cell current recordings. Cells were clamped at a voltage of −80 mV. […]
After reaching a membrane-permeable whole-cell configuration state during the initial phase, the cells were recorded for at least 120 s to reach stabilization. […]
The test data were analyzed by analysis software Qpatch provided by Sophion, Excel, Graphpad Prism, and the like.

C=CC(=O)N1C[C@@H]2C(=O)N(C)c3c(c4cc(Cl)c(-c5c(O)cccc5F)nc4n(-c4c(SC)ccnc4C(C)C)c3=O)N2C[C@H]1C (single isomer, unassigned) [Compound 17] showed an IC50 [1] of 83.4 nM, an AUC(0-inf) ([2]; read-out: Area under curve AUC0-∞) of 6380 ng·h/mL and a Cmax ([2]; read-out: Blood concentration Cmax) of 1400 ng/mL. The half-life ([2]; read-out: Half-life T½ (converted)) was 2.36 h, the “Inhibitory effect on heart hERG potassium ion channel (in words)” value [3] was “no obvious inhibitory effect” and the IC50 ([3]; highest test concentration 30 μM) was greater than 30000 nM.
